# Where “and” joins values, the source holds several entries; their conditions need not be identical. Equal values may be shown once. Entries after “also recorded” stand apart in the source; their conditions may differ.
# Columns and labels:
# [1] = Pharmacokinetics in mice, intraperitoneal; type: in vivo; conditions: C57Bl6/N, mouse, plasma, 30 mg kg^−1, ip, male mice
# Experimental: Three mice per time point were anesthetized with isoflurane and aliquots taken from the retroorbital sinus using sampling heparinated tubes (4 °C) at 10, 20, 30 min, 1, 2 and 4 h after administration of a single dose of ligands. The blood samples were centrifuged (5,000g, 15 min) for plasma separation. Plasma samples were thawed on ice. Aliquots of 50 μl were precipitated with 450 μl of ice-cold acetonitrile containing (R)-N-[3-(1-Hydroxycarbamoylmethyl-2-naphthalen-2-yl-ethyl)-3H-[1,2,3]triazol-4-ylmethyl]-benzamide (0.5 μM) used as internal standard. The samples were vigorously mixed with a vortex and centrifuged at 10,000 r.p.m. at 4 °C for 10 min, and the supernatants were transferred into tubes for LC−MS−MS analysis (Supplementary Table 2). Spiked standard solutions (10, 50, 100, 500, 1,000, 5,000, 10,000 and 50,000 nM) were prepared the same way. The protocol was approved by the ethical comitee CEEA Nord Pas de Calais (CEEA75).
# C57BL/6J mice [2] = test: Intraperitoneal glucose tolerance test (IPGTT); type: in vivo, mouse; conditions: 50 mg kg^−1 ip, intraperitoneal glucose 1.5 g kg^−1
# Experimental: OGTT and IPGTT were performed on 11 to 16 week-old male or female mice (n=4–7 per experimental group). C57BL/6J mice were purchased from Charles River Laboratories (France), Stock no. 000664. C57BL/6J Ide−/− mice were obtained from Guenette[20] and bred in the animal facility of INSERM U1151. WT C57BL/6J mice of the same genetic background were bred in the same animal facility in parallel. NOD Ide−/− mice were generated by backcrossing C57BL/6J Ide−/− mice with NOD wt mice bred in the animal facility of INSERM U1151 and maintained in this facility together with WT NOD mice. Normoglycemic WT and Ide−/− female NOD mice aged 14 weeks were used for OGTTs. Following a 6 h fasting period, a small tail cut was made, basal blood glucose was determined. […] Fifteen minutes later, blood glucose concentrations were measured before and after (up to 120 min, as shown) oral (2 g kg^−1 or 3 g kg^−1, as shown) or intraperitoneal (1.5 g kg^−1) glucose administration. […] Blood glucose levels were determined using an Accu-Check glucometer (Roche Diagnostics). Areas under the curves (AUC) for OGTT and IPGTT were calculated to evaluate glucose tolerance. Plasma insulin concentrations were measured by ELISA (cat. no. 10-1247-01,Mercodia) in blood samples collected 15 min before and 15 and 90 min relative to oral glucose injection. […]
# [3] = LogD measurement octanol/PBS pH 7.4; type: physicochemical; conditions: read-out: Logd7.4
# Experimental: Ten microlitre of a 10 mM solution in DMSO of the compound are diluted either in 490 μl of PBS pH 7.4 or in organic solvent MeOH in a 700 μl-microtube (in triplicate). The tubes are gently shaken 24 h at room temperature, then centrifuged for 5 min at 4,000 r.p.m. The mixtures are filtered over 0.45 μm filters (Millex-LH Millipore). Twenty microlitre of sample are diluted in 180 μl of MeOH. The solubility is determined by the ratio of mass signal area PBS/ organic solvent. Forty microlitre of a 10 mM solution in DMSO of the compound were diluted in 1.960 ml of a 1/1 octanol /PBS at pH 7.4 mixture. The mixture was gently shaken 2 h at room temperature. Twenty microlitre of each phase was diluted in 480 μl of MeOH and analysed by LC–MS. Each compound is tested in triplicate. Log D was determined as the logarithm of the ratio of concentration of product in octanol and PBS respectively, determined by mass signals.
# C57BL/6J mice [4] = test: Insulin tolerance test (ITT); type: in vivo, mouse; conditions: 50 mg kg^−1 ip
# Experimental: AUC for ITT were calculated to evaluate insulin sensitivity. Blood glucose levels were determined using an Accu-Check glucometer (Roche Diagnostics). […] The protocol was approved by the ethical comitee CEEA Nord Pas de Calais (CEEA75).
# Caco-2 permeation assay = type: in vitro ADME; conditions: human, 37 °C, pH 7.4/7.4
# Excerpt: Caco-2 cells were provided by ATCC and checked for mycoplasma contamination. These cells are not listed by ICLAC as misidentified cell lines (October 3rd, 2014). A total of 0.4 × 10^5 Caco-2 cells (ATCC no. […] The paracellular barrier characteristics of Caco-2 cells monolayer was monitored using (i) measurement of […] and (ii) measurement of the permeability to the non-permeant fluorescent molecule, Lucifer Yellow. Caco-2 cells were trypsinized after 3 days of incubation while they cover 80–90% of the flask and seeded at a density of 5 × 10^5 in 75 cm^2 flasks in complete medium supplemented with 73 nM (∼0.04 μg ml^−1) of the antibacterial puromycin (3′-[α-amino-p-methoxyhydrocinnamamido]-3′-deoxy-N,Ndimethyladenosine dihydrochloride). After 5–6 days, Caco-2 cells reach high cells density (>0.5 × 10^5 cells per cm^2) and are then passage into cell HTS 24-well plates with 0.4 μm polycarbonate membrane inserts. Cells were seeded at 600,000 cells per cm^2 (200,000 cells per insert) and cultivated for 6 days in complete medium with puromycin. Media was replaced every second days. Compound solutions were prepared in HEPES-buffered Ringerŕs (RH) solution (NaCl 150 mM, KCl 5.2 mM, CaCl2 2.2 mM, MgCl2 0.2 mM, NaHCO3 6 mM, Glucose 2.8 mM, HEPES 5 mM, water for injection), pH=7.4 at a final concentration of 1 or 10 μM for tested drugs. For A→B transport experiment, 0.2 ml of the compound solution was placed on the apical side of the cells and samples were taken from the basolateral compartment. For B→A transport experiment 0.8 ml of the solution was placed on the basolateral side of the cells and samples were taken from apical side. Transport Studies were done in Transwell polycarbonate: HTS 24-well plate inserts (surface area: 0.33 cm^2–0.4 μm pore size). Cells were equilibrated for 10 min in transport buffer prior to the transport experiment, and then incubations with compounds were performed at 37 °C under agitation. After 1 h aliquots were taken from each compartment and sampled in 96-well plates with glass insert. Permeation and the % of recovery are calculated using the formulas below: […]
compound,measurement,setting,value
O=C(C[C@@H](Cc1ccc2ccccc2c1)n1cc(CNC(=O)c2ccc(F)cc2)nn1)NO [Compound 1],Tmax,[1],10 min
same,half-life,[1],80 min
same,AUC(0-t),[1]; read-out: AUC0→4h,4270 ng·h/mL
same,Cmax,[1]; DMSO solution,4100 ng/mL and 9.2 µM
same,plasma glucose / glucose tolerance in IPGTT,C57BL/6J mice [2],Impairs glucose tolerance in IPGTT
same,logD,[3],2.2
same,serum insulin concentrations during ITT,"C57BL/6J mice [4]; 0.75 U kg^−1 insulin, significant at 30 min",slightly increased
same,glucose lowering effect of insulin during ITT,C57BL/6J mice [4]; 30 and 60 min,Augments insulin action in vivo; also recorded: tended to enhance
same,"Papp A→B at 1 h, 1 μM","Caco-2 permeation assay; Caco-2, A→B, 1 μM",3.3 ×10⁻⁶ cm/s
same,"Papp A→B at 1 h, 10 μM","Caco-2 permeation assay; Caco-2, A→B, 10 μM",2.4 ×10⁻⁶ cm/s
same,"Papp B→A at 1 h, 1 μM","Caco-2 permeation assay; Caco-2, B→A, 1 μM",19 ×10⁻⁶ cm/s
same,"Papp B→A at 1 h, 10 μM","Caco-2 permeation assay; Caco-2, B→A, 10 μM",17 ×10⁻⁶ cm/s
